Laboratory results: patent US9162992B2, “Compounds and compositions for treatment of breathing control disorders or diseases” (GALLEON PHARMACEUTICALS, INC., priority 2010, dated 2015)
pIC50: −log10 of the molar value. Where “and” joins values, the source holds several entries; their conditions need not be identical. Equal entries are not always repeated. Structures can show the parent of a compound that is named as a salt.

What was measured:
[1] = Solubility in solvents and IV solutions; type: physicochemical; conditions: water, thermodynamic from solid, Solubility
Description: The solubility of (XXXXVI) and XXXV was evaluated in various solvents and IV solutions. Due to limits on the API supply at the time the study was conducted, most of the solvent systems were evaluated to a level of only 100 mg/mL even if the solution was not saturated at this level. Only in water was an attempt made to reach saturation solubility, regardless of how high that solubility might be. Solubility of the salt/free base in each solvent was evaluated in duplicate.
For solubility in water, drug was added with intermittent shaking to ensure that excess undissolved drug is present indicating saturation […]. The filtrates were diluted appropriately and analyzed for (XXXV) concentration by HPLC.

[2] = test system: spontaneously breathing rats; experiment: Minute ventilation (MV) and cardiovascular parameters in naive rats; type: in vivo, rat; parameters: unit not given here
Description: All surgical procedures were performed under anesthesia induced by 2% isoflurane in compressed medical grade air. With rats in supine position, the right femoral vein was catheterized using polyethylene tubing (PE-50). This catheter was used for fluid and drug administration. Simultaneously, the right femoral artery was also catheterized for monitoring blood pressure and heart rate. In order to measure the respiratory parameters in spontaneously breathing rats, trachea was intubated using 13 gauge tracheal tube (2.5 mm ID, Instech Solomon, Pa.).
After establishing a stable base-line at 1.5% isoflurane, compounds (typically at a dose of 1 mpk) were administered IV, and ventilatory parameters were generated from spontaneously breathing rats, along with cardiovascular output (mean arterial pressure (MAP) and heart rate). Maximum peak minute ventilatory (MV) responses (MPR), along with changes in minute ventilation versus baseline (AMV) were obtained as shown in the tables below.

[3] = molecular target: T1, BK potassium channel expressed in GH3 cells (Rattus norvegicus, UniProt Q62976); experiment: BK potassium channel current in GH3 cells, inside-out patches; type: cell-based; conditions: Almirite 1 (mM as printed)
T1 construct: endogenous in cells; host or cells: GH3 cells
T1 sequence (Q62976 whole entry): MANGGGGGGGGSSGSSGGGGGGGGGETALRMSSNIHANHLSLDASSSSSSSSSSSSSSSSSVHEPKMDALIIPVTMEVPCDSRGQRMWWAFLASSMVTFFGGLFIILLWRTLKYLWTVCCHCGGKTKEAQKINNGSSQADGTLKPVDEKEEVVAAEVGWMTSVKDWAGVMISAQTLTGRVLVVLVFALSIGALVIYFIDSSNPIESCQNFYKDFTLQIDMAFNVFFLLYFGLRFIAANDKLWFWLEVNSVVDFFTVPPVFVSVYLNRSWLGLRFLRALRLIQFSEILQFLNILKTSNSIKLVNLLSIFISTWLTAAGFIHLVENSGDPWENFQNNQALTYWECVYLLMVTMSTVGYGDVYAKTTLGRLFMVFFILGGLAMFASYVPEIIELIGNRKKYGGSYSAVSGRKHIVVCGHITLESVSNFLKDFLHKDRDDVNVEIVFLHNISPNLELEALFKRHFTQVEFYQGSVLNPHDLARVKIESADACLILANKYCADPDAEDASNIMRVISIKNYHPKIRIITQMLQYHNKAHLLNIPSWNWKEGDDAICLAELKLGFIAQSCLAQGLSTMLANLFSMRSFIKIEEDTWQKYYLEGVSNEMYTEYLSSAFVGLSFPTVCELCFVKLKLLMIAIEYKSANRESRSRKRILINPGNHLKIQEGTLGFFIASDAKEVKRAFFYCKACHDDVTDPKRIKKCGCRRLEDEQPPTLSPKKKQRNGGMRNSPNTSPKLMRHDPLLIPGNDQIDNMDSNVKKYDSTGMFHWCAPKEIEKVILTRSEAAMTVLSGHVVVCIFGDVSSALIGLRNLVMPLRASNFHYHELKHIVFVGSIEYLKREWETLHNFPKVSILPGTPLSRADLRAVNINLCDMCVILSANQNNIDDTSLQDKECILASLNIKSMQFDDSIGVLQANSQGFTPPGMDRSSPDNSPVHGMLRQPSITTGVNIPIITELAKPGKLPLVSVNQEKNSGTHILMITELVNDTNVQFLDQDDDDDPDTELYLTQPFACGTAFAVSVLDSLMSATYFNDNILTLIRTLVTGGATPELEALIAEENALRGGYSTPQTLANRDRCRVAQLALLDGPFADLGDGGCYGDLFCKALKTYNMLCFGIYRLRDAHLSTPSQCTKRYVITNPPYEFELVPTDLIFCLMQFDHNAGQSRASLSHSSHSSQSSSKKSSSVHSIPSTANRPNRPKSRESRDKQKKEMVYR
Description: Stock solutions of the test article were prepared in dimethylsulfoxide (DMSO) and stored frozen. Test article concentrations were prepared fresh daily by diluting stock solutions into a physiological saline solution (composition in mM): KCl, 125; CaCl2, 8.5; HEPES, 10; EGTA, 11.25; pH adjusted to 7.2 with KOH (prepared weekly and refrigerated until used). All test solutions contained 0.1% DMSO.
GH3 cells were grown in culture using standard procedures. Ionic currents were measured from inside-out patches of GH3 cells. Channel activity was monitored in symmetrical K^+ conditions with a holding potential of −60 mV. Activities before and in the presence of each concentration of test articles were recorded for ≧3 minutes, respectively.
Data acquisition and analyses were performed using the suite of pCLAMP (Ver. 8.2) programs (MDS-AT, Sunnyvale, Calif. Percent inhibition by test article was calculated using the following equation: 100*(NPocontrol−NPotest)/NPocontrol Results

[4] = test system: morphine-induced respiratory depression; experiment: Opioid-induced respiratory depression in the rat, plethysmography (minute ventilation); type: in vivo; conditions: opioid-treated rat; plethysmography; FIG. 9
Description: Rats with pre-cannulated jugular vein (for administering drugs) were acclimated to plethysmography chambers for a minimum of 60 minutes, or until animals were no longer restless. Each animal was dosed with morphine sulfate (10 mg/kg), dissolved in sterile water at a concentration of 10 mg/mL (supplied by Baxter Healthcare Corporation), via injection into the jugular vein catheter over a period of 5-10 seconds.
Compound (XXXVI) was dissolved in 20% hydroxypropyl β-cyclodextran (20% bcd on graph) at a concentration of 0.45 mg/mL at pH 5. After a period of 5 min, compound (XXXVI), labeled as cmpd (A), was administered via infusion into the jugular vein at a dose of 0.10 mg/kg/min for 20 min and then at a dose of […] for 20 min (e.g., 20 μL/min/0.3 kg rat to yield […]).
After 20 minutes of infusion at this dose, the infusion pumps were turned off, and all animals were given a 20 minute recovery period, followed by a post-study analysis of rat health and behavior. […] Results are illustrated in FIG. 1.

[5] = test system: morphine-induced respiratory depression; experiment: Effects of morphine and compound on arterial blood gases in the rat; type: in vivo; conditions: opioid-treated rat
Description: Rats with pre-cannulated jugular vein and femoral arterial catheters (for administering drugs and obtaining blood samples respectively) were obtained from Harlan laboratories and kept at the animal facility at Galleon Pharmaceuticals until the experimental procedures. Each animal was dosed with morphine sulfate (10 mg/kg), dissolved in saline at a concentration of 10 mg/mL, via injection into the jugular vein over a period of 20 seconds with a 20 second flush of 0.9% NaCl saline. Prior to morphine administration, two 250 μL samples of arterial blood were aspirated from the femoral artery into a pre-heparinized syringe. The samples were analyzed on Radiometer's ABL Flex 800, where pO2, pCO2, pH, SaO2 and other parameters were recorded. Aspirated volumes of arterial blood were replaced by room temperature sterile saline (˜300 μL) slowly flushed back into the femoral arterial catheter of the rodent to prevent hypovolemia. Morphine was then administered and 2 minutes later another blood sample was taken.
The infusion started at t=15 minutes and ended at t=35 minutes. Arterial blood gas analysis occurred at time points t=12, 18, 25, 35, 40, 45, and 50 minutes.

human KCNK9/TASK-3 = molecular target: T2, human KCNK9/TASK-3 (Homo sapiens, UniProt Q9NPC2); experiment: Thallium flux through human TASK-3 (KCNK9-HEK cells); type: cell-based; conditions: Tl+ flux; 3 nM to 30 μM; read-out: hTASK-3 IC50
T2 construct: expressed in transfected cells; host or cells: HEK cells (tetracycline-inducible)
T2 sequence (Q9NPC2 whole entry): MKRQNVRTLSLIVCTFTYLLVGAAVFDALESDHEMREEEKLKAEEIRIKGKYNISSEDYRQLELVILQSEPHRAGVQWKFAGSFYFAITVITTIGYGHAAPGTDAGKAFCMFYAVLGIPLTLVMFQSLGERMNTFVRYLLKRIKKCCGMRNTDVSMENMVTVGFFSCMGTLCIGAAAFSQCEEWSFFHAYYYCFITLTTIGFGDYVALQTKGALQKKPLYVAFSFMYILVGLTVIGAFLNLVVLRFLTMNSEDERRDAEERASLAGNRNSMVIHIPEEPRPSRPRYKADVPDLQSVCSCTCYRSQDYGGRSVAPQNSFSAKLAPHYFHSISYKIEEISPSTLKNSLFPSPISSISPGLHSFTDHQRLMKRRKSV
Description: (§1) CHO cells expressing recombinant tetracycline-inducible rat KCNK3/TASK-1 (KCNK3-CHO cells) were plated in poly-D-lysine coated 384-well plates at a density of 6,000 cells/well (50 μl/well of 120,000 cells/mL) and allowed to incubate for 72 hrs in the presence of 5% CO2 and 1 μg/mL tetracycline at 30° C. HEK cells expressing recombinant tetracycline-inducible human KCNK9/TASK-3 (KCNK9-HEK cells) were plated at a density of 15,000 cells per well (50 μl/well, 300,000 cells/mL) and incubated overnight at 37° C. and 5% CO2 in the presence of 1 μg/mL tetracycline.
(§2) Drug plates were generated from 10 mM 100% DMSO mother plates. Compounds were transferred to 384-well drug plates and titrated with sequential 1:3 dilutions in 100% DMSO for a total of 9 dilutions. A dilution plate is made by taking 2.4 μl from the mother plate and adding to […] of assay buffer for a 12% DMSO dilution plate. From this dilution plate, a final daughter plate is generated by taking 1 μA of the dilution plate and adding to 40 μA of assay buffer for a final DMSO concentration of 0.3%. Each compound was evaluated in duplicate and the concentration range evaluated was 3 nM to 30 μM.
(§3) When thallium was added to extracellular solution with a stimulus to open channels, Tl^+ flowed down its concentration gradient into the cells and channel activity was detected with an indicator dye, FluxOR™, that increased in cytosolic fluorescence. The FluxOR™ indicator dye was loaded into cells as a membrane permeable acetoxymethyl ester. On the day of each assay, FluxOR™ assay buffer was made fresh from Hank's Balanced Saline Solution (HBSS) buffered with 20 mM HEPES and pH adjusted to 7.4 with NaOH. Dye loading solution was prepared per manufacturer's instructions, and 25 μl of dye solution applied to each well with a multidropper after plating medium was removed manually from cells. Dye was allowed to load for 90 minutes at room temperature in the dark.
(§4) After the 90 min dye loading incubation and subsequent manual dye removal, 24 μl of the drug daughter plate was transfer to cell plates by a cybi-well system and then incubated at room temperature for 20 minutes to allow for equilibration within wells. Stimulation buffer was prepared from 5× chloride-free buffer, thallium, and potassium sulfate containing 5 times the desired final assay concentration of 10 mM K^+ 2.8 mM Tl^+. Cell plates were then transferred to an FDSS 6000 kinetic imaging plate reader (Hamamatsu). Fluorescence at 525 nm (excitation 488 nm) was measured for 10 seconds at 1 Hz to establish baseline for the entire plate. After baseline was established, 6 μl/well of stimulation buffer was added and fluorescence signal recorded for another 140 seconds.
(§5) From the fluorescence signals in the absence and presence of Galleon compounds, Inhibitory concentration curves were plotted and IC50 values were estimated using a curve fitting algorithm.

rat KCNK3/TASK-1 = molecular target: T3, rat KCNK3/TASK-1 (Rattus norvegicus, UniProt O54912); experiment: Thallium flux through rat TASK-1 (KCNK3-CHO cells); type: cell-based; conditions: Tl+ flux; 3 nM to 30 μM; read-out: rTASK-1 IC50
T3 construct: expressed in transfected cells; host or cells: CHO cells (tetracycline-inducible)
T3 sequence (O54912 whole entry): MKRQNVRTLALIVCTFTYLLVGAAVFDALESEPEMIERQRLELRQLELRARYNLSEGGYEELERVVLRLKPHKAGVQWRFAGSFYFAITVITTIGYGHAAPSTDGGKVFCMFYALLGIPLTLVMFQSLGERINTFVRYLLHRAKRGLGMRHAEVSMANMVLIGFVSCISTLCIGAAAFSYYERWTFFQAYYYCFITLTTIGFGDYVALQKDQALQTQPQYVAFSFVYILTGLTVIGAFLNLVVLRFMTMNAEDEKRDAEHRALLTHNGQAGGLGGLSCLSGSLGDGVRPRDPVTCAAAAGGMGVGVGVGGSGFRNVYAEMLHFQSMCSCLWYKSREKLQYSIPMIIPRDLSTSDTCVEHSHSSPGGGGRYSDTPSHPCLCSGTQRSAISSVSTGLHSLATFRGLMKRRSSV
Description: as §1, §2, §3, §4, §5

[6] = test system: spontaneously breathing rats; experiment: Dose-dependent effect on minute ventilation (MV) in naive rats; type: in vivo, rat; conditions: 1.5% isoflurane; for minute ventilation, dose dependence: cumulative IV doses
Description: All surgical procedures were performed under anesthesia induced by 2% isoflurane in compressed medical grade air. With rats in supine position, the right femoral vein was catheterized using polyethylene tubing (PE-50). This catheter was used for fluid and drug administration. Simultaneously, the right femoral artery was also catheterized for monitoring blood pressure. In order to measure the respiratory parameters in spontaneously breathing rats, trachea was intubated using 13 gauge tracheal tube (2.5 mm ID, Instech Solomon, Pa.).
After establishing a stable base-line at 1.5% isoflurane, cumulative dose-dependent (0.01, 0.03, 0.1, 0.3, 1, 3, 10 mg/kg) ventilatory responses to compounds (XXXVI) and (L), labeled as cmpd (A) and cmpd (B) respectively, were generated from spontaneously breathing rats. Maximum peak minute ventilatory (MV) values at each dose of corresponding drug were calculated and used for generating ED50 values.

[7] = GMP drug product stability of final formulation (25° C./60% RH and 2-8° C.), degradant CLXXVIII; type: physicochemical
Excerpt: A batch of (XXXVI) formulated for clinical use was placed under formal GMP stability (Tables 20I.1 and […]).

[8] = Table 8, 1 mpk, 20% HPβCD, pH 4

Compound: CCCNc1nc(NCC2CC2)nc(N(C)OC)n1 [XXV, N-(4-Cyclopropylmethyl)-N-(6-n-propylamino) [1,3,5]triazin-2-yl)-N,O-dimethyl-hydroxylamine hydrochloride]
- solubility [1]: ~210 µg/mL
- MV MPR ([2]; 1 mpk IV, 20% HPβCD, pH 4-6): 257
- MV ΔMV ([2]; 1 mpk IV, 20% HPβCD, pH 4-6): 126

Compound: C=CCNc1nc(NCC=C)nc(N2CCN(C(c3ccc(F)cc3)c3ccc(F)cc3)CC2)n1 [Almirite, almitrine, reference compound]
- Inhibition (%), Average [3]: 94.7%
- NPo, Average [3]: 0.0010
- Inhibition (%) ([3]; single patch): 97.9% and 91.5%
- NPo (total channel open probability) ([3]; single patch): 0.0009 and 0.0011

Compound: CCCNc1nc(N(C)OC)c2cc[nH]c2n1 [CXLII, N-(2-Propylamino-7H-pyrrolo[2,3d]pyrimidin-4-yl)-N,O-dimethyl-hydroxylamine hydrochloride]
- minute ventilation (MV), reversal of opioid-induced respiratory depression [4]: reverse opioid-induced respiratory depression
- effects of opioid on blood gases and pH (pH, SaO2, pO2, pCO2) [5]: reverse the effects of opioid on blood gases and pH

Compound: CCCNc1nc(NCCC)nc(NN(C)C)n1 [XLVI, N-(4,6-Bis-n-propylamino-[1,3,5]triazin-2-yl)-N′,N′-dimethylhydrazine]
- pIC50 (human KCNK9/TASK-3): < 4.52
- pIC50 (rat KCNK3/TASK-1): 6.22

Compound: CCCNc1nc(NCCC)nc(N(C)NC)n1.O=S(=O)(O)O [L, N-(4,6-Bis-n-propylamino-[1,3,5]triazin-2-yl)-N,N′-dimethyl-hydrazine hydrogen sulfate]
- effects of opioid on blood gases and pH (pH, SaO2, pO2, pCO2) [5]: reverse the effects of opioid on blood gases and pH
- ED50 ([6]; Rattus norvegicus, cumulative IV doses 0.01-10 mg/kg, read-out: ED50, maximum peak minute ventilation): 0.13 mg/kg
- minute ventilation, dose dependence [6]: increased minute ventilation in a dose-dependent manner

Compound: CCCNc1nc(O)nc(NCCC)n1 [(CLXXVIII)]
- Level of Degradant (CLXXVIII) in GMP lot# 041I0511 ([7]; 5° C., amb. RH, Inverted, T = 1 month): 0.03%
- Level of Degradant (CLXXVIII) in GMP lot# 041I0511 ([7]; 5° C., amb. RH, Inverted, T = 3 month): 0.06%
- Level of Degradant (CLXXVIII) in GMP lot# 041I0511 ([7]; 5° C., amb. RH, Inverted, T = 6 month): 0.08%
- Level of Degradant (CLXXVIII) in GMP lot# 041I0511 ([7]; 5° C., amb. RH, Inverted, T = 9 month): 0.11%
- Level of Degradant (CLXXVIII) in GMP lot# 041I0511 ([7]; 5° C., amb. RH, Upright, T = 6 month): 0.08%
- Level of Degradant (CLXXVIII) in GMP lot# 041I0511 ([7]; Release Testing, Drug Product Production lot Sample Pull Beg.): 0.00%
- Level of Degradant (CLXXVIII) in GMP lot# 041I0511 ([7]; Release Testing, Drug Product Production lot Sample Pull End): 0.00%
- Level of Degradant (CLXXVIII) in GMP lot# 041I0511 ([7]; Release Testing, Drug Product Production lot Sample Pull Mid.): 0.00%

Compound: CCCNc1nc(NN(C)C)c2ccn(C)c2n1 [CLXX, N,N-Dimethyl-N′-(2-n-propylamino-7-methyl-pyrrolo[2,3d]pyrimidin-4-yl)-hydrazine]
- pIC50 (human KCNK9/TASK-3): < 4.52
- MV DMV ([2]; Table 8, 1 mpk, 15/65/20, pH 5): 89
- MV MPR ([2]; Table 8, 1 mpk, 15/65/20, pH 5): 167
- MV DMV [2, 8]: 83
- MV MPR [2, 8]: 175
- pIC50 (rat KCNK3/TASK-1): 6.80

Compound: CCCNc1cc(N(C)OC)nc(NCCC)n1 [CXXI, 2,6-Bis-(N-n-propylamino)-[1,3]pyrimidin-4-yl)-N,O-dimethyl-hydroxylamine hydrogen sulfate]
- pIC50 (human KCNK9/TASK-3): < 4.52
- minute ventilation, dose dependence [6]: increase minute ventilation in a dose-dependent manner
- pIC50 (rat KCNK3/TASK-1): 6.66
